Measured values as given in patent publication US12409173B2, “Repurposing FDA-approved drugs as a novel cancer therapeutic avenue through inhibition of PRMT5” (priority 2019, dated 2025).

Key:
[1] = system: PRMT5-mediated R30 dimethylation of p65 (NF-κB); assay: Western blot for symmetric dimethylation of p65 at R30; format: cell-based; settings: PANC1, HT29 and MDA-MB-231 cells; treated at MTT IC50 values; vs untreated
Experimental: Primary antibodies for symmetric dimethylation at arginine (R) 30 subunit of p65 (detected by generating a customized polyclonal primary antibody in collaboration with GenScript Inc, Piscataway, NJ) and […] (Sigma-Aldrich) with their corresponding secondary antibodies were used.
PDAC, CRC and BC cells were pelleted post treatment with either Clo or Can in phosphate buffered saline (PBS). Pellets were lysed by overnight incubation at −80° C. as well as addition of lysis buffer [(10 mM Tris-Cl pH 8.0, 1 mM EDTA, 1% Triton X, 0.1% sodium deoxycholate, 0.1% SDS (sodium dodecyl sulfate), 14 mM NaCl, 1 mM phenylmethylsulfonyl fluoride]. Protein concentration for each sample was determined using Protein Assay Reagent (Biorad, Hercules, CA). Equal protein concentrations were run on a 10% SDS-PAGE (polyacrylamide gel electrophoresis) gel and transferred using polyvinylidene fluoride membrane (Thermo Fisher Scientific). Membranes were exposed to respective primary and secondary antibodies at dilutions and times based on manufacturer's instructions. Protein signal was detected using enhanced chemiluminescence (ECL) reagent (PerkinElmer).

[2] = system: PANC1, HT29 and MDA-MB231 cells; assay: Three-dimensional (3D) colony formation assay; format: cell-based; settings: increasing concentrations, 72 hours of drug treatment
Experimental: PANC1 and MDA-MB-231 (1000 cells) as well as HT29 (250 cells) were seeded per well within ultra-low attachment plates (Corning Inc) in media comprising 3% Reduced Growth Factor-Matrigel (BD Biosciences, Franklin Lakes, NJ). Clo and Can were added in a concentration range from 5-100 μM and 5-120 μM respectively after seeding for 48 hours. After 72 hours of drug treatment, the cells were stained using 10% Alamar blue dye (Fisher) and fluorescence was quantified using a Synergy H4 Reader.

[3] = design: species or system mice; settings: mouse, in vivo, po, 100 mg/kg
Experimental: (§1) Male and female NSG mice were obtained from the In Vivo Therapeutics Core at Indiana University School of Medicine. After acclimation for 7 days, NSG mice (5-6 weeks old) were xenografted with Mycoplasma-free PANC1, MCF7 or HT29 cells subcutaneously (1×10^7 PANC1, 3×10^6 MCF7 or 3×10^6 HT29 cells used per mouse in 0.2 ml of a 1:1 mix of serum free DMEM media, or serum free RPMI media and Matrigel). Male mice were xenografted with PANC1 and HT29 cells. Female mice were xenografted with MCF7 cells. 5 mice were randomized in each group when tumor volumes reached ˜50 mm^3. Mice were treated with either vehicle control (10% DMSO, 20% PEG400, 5% Tween 80 and 65% sterile water), 100 mg/kg or 200 mg/kg candesartan cilexetil dissolved in the vehicle, or 100 mg/kg or 200 mg/kg cloperastine dissolved in the vehicle through oral gavage daily. Tumor volumes were measured 4 times per week and body weights were measured twice a week. The study was performed in accordance with the guidelines and standards of the Institutional Animal Care and Use Committee (IACUC)

[4] = system: CRC cell lines (HT29, HCT116 and DLD1); assay: MTT cell viability assay, CRC cells; format: cell-based; settings: 4 days
Experimental: (§2) Cells were grown to 60% density in clear flat-bottom 96-well plates (Corning Inc, Corning, NY) for 24 hours and treated with a range of concentrations of either Clo or Can respectively, followed by incubation for 4 days. 10 μl of MTT dye (Sigma-Aldrich) was added to each well and incubated for 2 hours at 37° C. The media:MTT mixture was then removed and 10 μl DMSO was added per well. Absorbance was measured using Synergy H4 Multi-Mode Reader (BioTek Instruments, Winooski, VT).

[5] = system: PDAC cells (PANC1, MiaPaCa2 and AsPC1); assay: MTT cell viability assay, PDAC cells; format: cell-based; settings: 4 days
Experimental: as §2

[6] = system: BC cells (MD-MB-231 and BT20); assay: MTT cell viability assay, BC cells; format: cell-based; settings: 4 days
Experimental: as §2

NF-κB activation = assay: NF-κB luciferase assay; format: cell-based; settings: increasing concentrations; PANC1, HT29 and MDA-MB-231 cells; 48 hours
Experimental: The NF-κB luciferase lentiviral construct pLA-NFκBmCMV-luc-H4-puro (containing five tandem copies of the NF-κB site from the IP10 gene) was introduced in the respective cell lines using Lipofectamine™ LTX Reagent and PLUS Reagents (Thermo Fisher Scientific). Luciferase activity was measured after 48 hours (with or without drug treatment) using Reporter Lysis Buffer kit (Promega, Madison, WI) as per manufacturer's instructions and the Synergy H4 Reader.

[7] = system: IL8 and TNFα mRNA expression; assay: qRT-PCR of NF-κB target genes IL8 and TNFα; format: cell-based; settings: PANC1, HT29 and MDA-MB-231 cells; 48 hours; vs untreated
Experimental: Following treatment with either Clo or Can for 48 hours, total RNA was isolated from the respective cell lines using Trizol as described earlier. First strand complementary DNA was generated using SuperScript III First-Strand Synthesis Kit (Invitrogen, Carlsbad, CA). Following this, qPCR was executed using FastStart Universal SYBR Green kit (Roche, Indianapolis, IN).

PRMT5 = target: T1, PRMT5 (Homo sapiens, UniProt O14744); assay: AlphaLISA PRMT5 methyltransferase assay (biotin-H4R3 substrate, SAM); format: biochemical; settings: PRMT5 methyltransferase activity, FIG. 3C; read-out: IC50 binding affinities by AlphaLISA assay
T1 construct: Flag; made in house; host or cells: 293 cells
T1 sequence (O14744 whole entry): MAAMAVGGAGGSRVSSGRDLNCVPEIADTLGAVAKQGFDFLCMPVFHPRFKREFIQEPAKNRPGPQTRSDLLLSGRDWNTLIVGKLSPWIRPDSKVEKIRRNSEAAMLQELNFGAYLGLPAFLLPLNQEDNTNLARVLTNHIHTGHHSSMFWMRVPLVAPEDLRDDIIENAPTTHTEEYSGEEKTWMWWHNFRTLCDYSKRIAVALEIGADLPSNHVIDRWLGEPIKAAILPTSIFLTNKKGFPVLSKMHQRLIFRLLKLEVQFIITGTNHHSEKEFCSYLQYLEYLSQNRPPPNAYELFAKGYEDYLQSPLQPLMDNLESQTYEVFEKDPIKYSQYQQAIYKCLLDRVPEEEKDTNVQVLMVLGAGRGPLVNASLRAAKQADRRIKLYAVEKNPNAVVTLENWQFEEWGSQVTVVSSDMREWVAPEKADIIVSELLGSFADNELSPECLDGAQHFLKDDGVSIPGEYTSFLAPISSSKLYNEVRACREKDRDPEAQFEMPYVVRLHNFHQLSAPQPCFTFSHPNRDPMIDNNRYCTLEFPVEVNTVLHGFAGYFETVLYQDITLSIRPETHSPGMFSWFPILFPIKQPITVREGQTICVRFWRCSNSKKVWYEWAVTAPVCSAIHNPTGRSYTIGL
T1 sequence (Q9BQA1 whole entry partner): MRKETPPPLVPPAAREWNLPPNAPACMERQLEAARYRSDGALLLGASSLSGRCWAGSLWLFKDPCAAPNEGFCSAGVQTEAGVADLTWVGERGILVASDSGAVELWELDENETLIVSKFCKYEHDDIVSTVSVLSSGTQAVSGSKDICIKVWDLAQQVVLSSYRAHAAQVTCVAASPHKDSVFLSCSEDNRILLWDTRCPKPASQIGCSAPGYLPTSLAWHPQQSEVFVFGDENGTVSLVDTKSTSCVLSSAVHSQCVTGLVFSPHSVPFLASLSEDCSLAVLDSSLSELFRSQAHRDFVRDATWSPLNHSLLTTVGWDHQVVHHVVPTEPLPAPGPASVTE
Description: For AlphaLISA HTS: the substrate, histone H4 peptide unmethylated at arginine (R) 3 (unmeH4R3) was purchased from AnaSpec (Fremont, CA). The 23-amino acid H4R3 peptide was biotinylated at its N′ terminus: […]-K(biotin)-NH2 (SEQ ID NO: 1). S-adenosyl methionine (SAM) was used as a methyl group donor (New England Biolabs, Ipswich, MA). Compound libraries comprising of FDA-approved drugs, synthetic and semi-synthetic natural products as well as bioactives were collectively purchased from Analyticon Discovery (Rockville, MD), MilliporeSigma (Burlington, MA) and Microsource Discovery Systems Inc (Gaylordsville, CT). Acceptor beads specific for dimethylated H4R3, Donor beads with a streptavidin tag, assay buffer, OptiPlate™ 384-well white bottom plates, TopSeal™-A film to seal the plates and EnVision® Multilabel Reader were sourced from PerkinElmer (Waltham, MA). […]
A detailed description of optimization of the AlphaLISA HTS screening protocol has already been published previously. […] Alpha signal was then quantified using the EnVision® reader.
To design a drug screen to check for compounds that had the potential to inhibit PRMT5 methyltransferase activity, the AlphaLISA assay was utilized. […] This emitted AlphaLISA signal is directly proportional to the methyltransferase activity of PRMT5, thus allowing for quantification of its enzymatic activity.

[8] = system: PANC1, HT29 and MCF7 xenografts; assay: Xenograft tumor growth in NSG mice (PANC1, HT29, MCF7); format: in vivo; settings: PANC1, HT29 or MCF7 xenografts, 100 mg/kg oral gavage daily
Experimental: as §1

SMILES	dimethylation levels at R30 of p65 [1]	extent of 3D colony formation [2]	body weights over the course of treatment [3]	IC50 [4]	IC50 [5]	IC50 [6]	activation of NF-κB (luciferase) (NF-κB activation)	mRNA expression of IL8 and TNFα [7]	IC50 (PRMT5)	tumor sizes over time relative to control mice [8]
CCOc1nc2cccc(C(=O)OC(C)OC(=O)OC3CCCCC3)c2n1Cc1ccc(-c2ccccc2-c2nn[nH]n2)cc1 (centres unmarked) [Can, Candesartan cilexetil]	reduction in the dimethylation levels at R30	marked decrease	body weights remained similar	15 to 17 µM	~20 µM	18 to 20 µM	concurrent decrease	significant decrease	33 µM	remarkably reduced tumor sizes
Cl.Clc1ccc(C(OCCN2CCCCC2)c2ccccc2)cc1 (centres unmarked) [Clo, Cloperastine hydrochloride]	reduction in the dimethylation levels at R30	marked decrease	body weights remained similar	18 to 34 µM	~30 µM	26 to 29 µM	concurrent decrease	significant decrease	27 µM	significantly reduced tumor sizes
